The source of these data is PubChem BioAssay AID330 (DTP/NCI, 2004).

The assay deals with P388 leukemia ip, CD2F1 mice, survival T/C. The experiment in a line: NCI In Vivo Anticancer Drug Screen. Data for tumor model P388 Leukemia (intraperitoneal) in CD2F1 (CDF1) mice. The note with it: endpoint: median survival time, higher = longer survival. The gist of the method:
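Mice carrying the transplanted tumor received test compound or vehicle. Survival was recorded in each group, and the value is the treated-group measurement divided by that of the vehicle-treated control group.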

Where [1] appears, read: dose: 60.0 mg/kg/injection, schedule: Q01DX005 (ip), vehicle: Klucel (hydroxypropylcellulose) (HPC).
Where [2] appears, read: dose: 120.0 mg/kg/injection, schedule: Q01DX005 (ip), vehicle: Klucel (hydroxypropylcellulose) (HPC).
The mark [3] stands for this setting: dose: 240.0 mg/kg/injection, schedule: Q01DX005 (ip), vehicle: Klucel (hydroxypropylcellulose) (HPC).
Setting [4] is: dose: 12.5 mg/kg/injection, schedule: Q01DX009 (ip), vehicle: saline with Tween-80.
The mark [5] stands for this setting: dose: 25.0 mg/kg/injection, schedule: Q01DX009 (ip), vehicle: saline with Tween-80.
[6] abbreviates: dose: 100.0 mg/kg/injection, schedule: Q04DX003 (ip), vehicle: saline with Tween-80.
[7] abbreviates: dose: 50.0 mg/kg/injection, schedule: Q01DX009 (ip), vehicle: Klucel (hydroxypropylcellulose) (HPC).
Where [8] appears, read: dose: 100.0 mg/kg/injection, schedule: Q01DX009 (ip), vehicle: Klucel (hydroxypropylcellulose) (HPC).
Where [9] appears, read: dose: 50.0 mg/kg/injection, schedule: Q01DX005 (ip), vehicle: Klucel (hydroxypropylcellulose) (HPC).
[10] abbreviates: dose: 100.0 mg/kg/injection, schedule: Q01DX005 (ip), vehicle: Klucel (hydroxypropylcellulose) (HPC).
Where [11] appears, read: dose: 200.0 mg/kg/injection, schedule: Q01DX005 (ip), vehicle: Klucel (hydroxypropylcellulose) (HPC).
[12] abbreviates: dose: 60.0 mg/kg/injection, schedule: Q01DX005 (ip), vehicle: saline with Tween-80.
Setting [13] is: dose: 120.0 mg/kg/injection, schedule: Q01DX005 (ip), vehicle: saline with Tween-80.
[14] abbreviates: dose: 240.0 mg/kg/injection, schedule: Q01DX005 (ip), vehicle: saline with Tween-80.
Where [15] appears, read: dose: 30.0 mg/kg/injection, schedule: Q01DX005 (ip), vehicle: saline with Tween-80.

Where “and” joins values, the source holds several entries; their conditions need not be identical. Equal entries are not always repeated. Toxic doses and inconclusive results are not listed.

Consider `COc1ccc(C2SCC(=O)N2c2nncs2)c(OC)c1` (stereo unspecified), for which the T/C under setting [1] was 99 % of control, the T/C under setting [2] is 106 % of control and the T/C under setting [3] is 110 % of control.

As to `COc1ccc(-c2coc3c4c(ccc3c2=O)OC(C)(C)C=C4)cc1`, the T/C was 101 % of control (dose: 50.0 mg/kg/injection, schedule: Q01DX005 (ip), vehicle: saline with Tween-80); 99 % of control (dose: 100.0 mg/kg/injection, schedule: Q01DX005 (ip), vehicle: saline with Tween-80); 100 % of control (dose: 200.0 mg/kg/injection, schedule: Q01DX005 (ip), vehicle: saline with Tween-80).

Turning to `CC1CN=C(c2ccc(NC(=O)Nc3ccc(C(=O)Nc4ccc(C5=NCC(C)N5)cc4)cc3)cc2)N1` (stereo unspecified), the T/C by setting is: under setting [4], 195 % of control; under setting [5], 159 % of control and 213 % of control; (dose: 25.0 mg/kg/injection, schedule: Q04DX003 (ip), vehicle: saline with Tween-80) 116 % of control; (dose: 50.0 mg/kg/injection, schedule: Q01DX009 (ip), vehicle: saline with Tween-80) 95 % of control; under setting [6], 150 % of control; (dose: 100.0 mg/kg/injection, schedule: Q04DX003 (ip), vehicle: saline) 163 % of control.

`CCOC1(C)OC2OC(COC(C)=O)C(OC(C)=O)C(OC(C)=O)C2O1` (stereo unspecified): the T/C (dose: 4.0 mg/kg/injection, schedule: Q01DX009 (ip), vehicle: other) is 95 % of control; the T/C (dose: 8.0 mg/kg/injection, schedule: Q01DX009 (ip), vehicle: other) is 99 % of control; the T/C (dose: 16.0 mg/kg/injection, schedule: Q01DX009 (ip), vehicle: other) was 102 % of control; the T/C (dose: 32.0 mg/kg/injection, schedule: Q01DX009 (ip), vehicle: other) is 104 % of control; the T/C (dose: 50.0 mg/kg/injection, schedule: Q01DX009 (ip), vehicle: other) was 95 % of control; the T/C (dose: 64.0 mg/kg/injection, schedule: Q01DX009 (ip), vehicle: other) was 98 % of control. The T/C is, setting by setting: (dose: 100.0 mg/kg/injection, schedule: Q01DX009 (ip), vehicle: other) 100 % of control; (dose: 200.0 mg/kg/injection, schedule: Q01DX009 (ip), vehicle: other) 104 % of control; (dose: 400.0 mg/kg/injection, schedule: Q01DX009 (ip), vehicle: other) 95 % of control.

With `Nc1nc(-c2ccc([N+](=O)[O-])cc2)cc(-c2cc(-c3ccc([N+](=O)[O-])cc3)nc(N)n2)n1`, the T/C was 87 % of control under setting [1], 89 % of control under setting [2] and 94 % of control under setting [3].

As for `COc1cccc(/C=C/C(=O)O)c1OC`, the T/C is 98 % of control (dose: 25.0 mg/kg/injection, schedule: Q01DX009 (ip), vehicle: water); 91 % of control (dose: 50.0 mg/kg/injection, schedule: Q01DX009 (ip), vehicle: water); 94 % of control (dose: 100.0 mg/kg/injection, schedule: Q01DX009 (ip), vehicle: water); 100 % of control (dose: 200.0 mg/kg/injection, schedule: Q01DX009 (ip), vehicle: water); 98 % of control (dose: 400.0 mg/kg/injection, schedule: Q01DX009 (ip), vehicle: water).

As for `Oc1ccc(Cl)cc1C1c2ccccc2Oc2ccccc21`, the T/C under setting [7] was 115 % of control and the T/C under setting [8] is 108 % of control.

Consider `CCC(C)(C)N=C(NC(=O)C(F)(F)F)Nc1cccnc1`, for which the T/C is, setting by setting: under setting [6], 93 % of control; (dose: 200.0 mg/kg/injection, schedule: Q04DX003 (ip), vehicle: saline with Tween-80) 94 % of control.

On to `C=C(C)C(=NC(C)C)Nc1ccccc1Cl`, for which the T/C is 92 % of control and 108 % of control under setting [9]; 92 % of control and 107 % of control under setting [10]; 98 % of control under setting [11].

For `CSc1nc2c(SC)ncnc2s1`, the T/C reads like this: (dose: 100.0 mg/kg/injection, schedule: Q01DX001 (ip), vehicle: distilled water + alcohol) 103 % of control; (dose: 200.0 mg/kg/injection, schedule: Q01DX001 (ip), vehicle: distilled water + alcohol) 94 % of control; (dose: 400.0 mg/kg/injection, schedule: Q01DX001 (ip), vehicle: distilled water + alcohol) 98 % of control.

For the molecule `NC(=O)SCCC(=O)Nc1ccccc1`, the T/C under setting [9] is 105 % of control, the T/C under setting [10] is 105 % of control and the T/C under setting [11] was 109 % of control.

On to `COc1cc(O)c(/C=N\O)c(OC)c1`, for which the T/C is 96 % of control under setting [12], 98 % of control under setting [13] and 98 % of control under setting [14].

Regarding `CC1(Cc2ccccc2)NC(=O)NC1=O` (stereo unspecified), the T/C reads like this: under setting [7], 100 % of control; under setting [8], 104 % of control; (dose: 200.0 mg/kg/injection, schedule: Q01DX009 (ip), vehicle: Klucel (hydroxypropylcellulose) (HPC)) 105 % of control.

For `CCOC(=O)C12CC(COc3ccc([N+](=O)[O-])cc3)ON1OC(COc1ccc([N+](=O)[O-])cc1)C2` (stereo unspecified), the T/C (dose: 15.0 mg/kg/injection, schedule: Q01DX005 (ip), vehicle: saline with Tween-80) was 93 % of control; the T/C under setting [15] was 90 % of control; the T/C under setting [12] is 86 % of control and 88 % of control.

As for `O=C1c2ccccc2-c2cc3ccccc3c(=O)n21`, the T/C is 95 % of control under setting [12], 91 % of control under setting [13] and 89 % of control under setting [14].

On to `CC1=CC2OC3C(OC(=O)CCCCl)C(OC(=O)CCCCl)C(C)(C2(CO)CC1)C31CO1` (stereo unspecified), for which the T/C runs as follows: (dose: 4.0 mg/kg/injection, schedule: Q01DX009 (ip), vehicle: saline with Tween-80) 152 % of control; (dose: 8.0 mg/kg/injection, schedule: Q01DX009 (ip), vehicle: saline with Tween-80) 172 % of control.

For the molecule `C/C(=N\NC(=O)Cc1ccccc1)C(=O)O`, the T/C under setting [9] was 100 % of control, the T/C under setting [10] is 89 % of control and the T/C under setting [11] was 94 % of control.

As for `CCCCCCCCCCCC(=O)NO`, the T/C runs as follows: (dose: 3.13 mg/kg/injection, schedule: Q01DX009 (ip), vehicle: saline with Tween-80) 94 % of control; (dose: 6.25 mg/kg/injection, schedule: Q01DX009 (ip), vehicle: saline with Tween-80) 99 % of control; under setting [4], 101 % of control; under setting [5], 95 % of control.

Consider `Cc1cc(Cl)ccc1NC(=O)N1CCCCC1`, for which the T/C is, setting by setting: under setting [1], 96 % of control; under setting [2], 96 % of control; under setting [3], 93 % of control.

`COc1cc(C(CC(C)=O)c2cc3c(cc2OC(C)=O)OCO3)cc(OC)c1OC` (stereo unspecified) (tested in a mixture with another compound): the T/C was 99 % of control under setting [15]; 102 % of control and 122 % of control under setting [12]; 118 % of control under setting [13]; 162 % of control and 188 % of control under setting [14].

For the molecule `CCC(NN)C(=O)OCc1ccccc1` (stereo unspecified), the T/C is 97 % of control under setting [9], 95 % of control under setting [10] and 103 % of control under setting [11].

As to `S=C(SCc1nc(-c2ccc(Cl)cc2)no1)N1CCSCC1`, the T/C under setting [12] was 97 % of control, the T/C under setting [13] is 92 % of control and the T/C under setting [14] was 105 % of control.

Regarding `CC(C)CC(NC(=O)OCC1c2ccccc2-c2ccccc21)C(=O)O` (stereo unspecified), the T/C is, setting by setting: under setting [9], 101 % of control; under setting [10], 100 % of control.

Regarding `CSC(=S)/C(=C/Nc1ccccn1)c1ccccc1`, the T/C reads like this: (dose: 0.93 mg/kg/injection, schedule: Q01DX005 (ip), vehicle: Klucel (hydroxypropylcellulose) (HPC)) 100 % of control; (dose: 1.87 mg/kg/injection, schedule: Q01DX005 (ip), vehicle: Klucel (hydroxypropylcellulose) (HPC)) 94 % of control.

With `COC(=O)c1nnn(-c2cc(Cl)ccc2Cl)c1C(=O)c1ccc(Cl)c(Cl)c1`, the T/C is 99 % of control under setting [12], 96 % of control under setting [13] and 87 % of control under setting [14].

As for `[Ni+2].[O-]/C(=N\N=C/c1ccco1)c1ccccc1O.[O-]/C(=N\N=C/c1ccco1)c1ccccc1O`, the T/C is, setting by setting: (dose: 50.0 mg/kg/injection, schedule: Q04DX002 (ip), vehicle: saline with Tween-80) 86 % of control; (dose: 100.0 mg/kg/injection, schedule: Q04DX002 (ip), vehicle: saline with Tween-80) 93 % of control; (dose: 200.0 mg/kg/injection, schedule: Q04DX002 (ip), vehicle: saline with Tween-80) 93 % of control.
